Positions of bridges follow the written chain, without caps; N, C: chain ends. Non-standard residues stand in square brackets, D forms with d. Residues, ends and D or L forms follow the SMILES beside them. *: point of attachment. Malonyl(2,2-Me2,histaminyl) = CC(C)(C(=O)NCCc1cnc[nH]1)C(=O)*; Ala(1H-tetrazol-5-yl) = N[C@@H](Cc1nnn[nH]1)C(=O)O; αMeL = CC(C)C[C@](C)(N)C(=O)O; Nle = CCCC[C@H](N)C(=O)O; Aib = CC(C)(N)C(=O)O
Key:
[1] = biological target: T1, human GLP2 receptor (Homo sapiens, UniProt O95838); assay: cAMP accumulation assay, functional agonism of human GLP2 receptor; assay type: cell-based; conditions: HEK cells infected with human GLP2 receptor BacMam virus, HTRF cAMP; for Emax: HEK293, read-out: Human GLP-2R agonist cAMP Emax; for EC50: read-out: Human GLP-2R agonist cAMP pEC50 (converted)
T1 construct: expressed in transfected cells; host or cells: HEK cells, BacMam virus transduction
T1 sequence (O95838 1-553): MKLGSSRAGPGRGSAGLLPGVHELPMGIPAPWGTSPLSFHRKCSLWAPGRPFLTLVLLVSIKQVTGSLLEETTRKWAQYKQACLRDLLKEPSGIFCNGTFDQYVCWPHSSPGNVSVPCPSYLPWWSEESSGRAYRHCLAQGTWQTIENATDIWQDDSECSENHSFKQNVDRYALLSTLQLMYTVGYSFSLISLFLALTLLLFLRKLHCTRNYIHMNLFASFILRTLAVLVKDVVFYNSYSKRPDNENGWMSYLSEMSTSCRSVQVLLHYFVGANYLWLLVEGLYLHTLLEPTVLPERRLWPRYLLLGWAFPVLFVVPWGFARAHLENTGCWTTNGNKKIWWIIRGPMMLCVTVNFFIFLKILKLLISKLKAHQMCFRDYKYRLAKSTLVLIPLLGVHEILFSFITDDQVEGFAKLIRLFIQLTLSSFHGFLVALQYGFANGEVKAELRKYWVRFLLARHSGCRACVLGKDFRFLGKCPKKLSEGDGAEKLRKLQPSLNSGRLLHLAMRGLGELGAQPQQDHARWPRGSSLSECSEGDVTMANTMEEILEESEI
Summary of the method: (§1)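 HEK cells transduced for 24 hours with human GLP2 or GLP1 receptor BacMam virus were frozen, then stimulated with agonist in HBSS containing 0.5 mM IBMX. After 45 min at 37° C, cAMP was measured by HTRF after adding detection reagents in lysis buffer.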

[2] = Stability of peptides in Fasted-State Simulated Intestinal Fluid (FaSSIF); assay type: in vitro ADME; conditions: FaSSIF with 10 mg/ml pancreatin, 37° C.; for remaining at 0.5 h: t=30 mins, pH 6.5, 10 mg/ml pancreatin; for remaining at 0.25 h: FaSSIF pH 6.5 with 10 mg/ml pancreatin, t = 15 mins
[3] = biological target: T2, mouse GLP2 receptor (Mus musculus, UniProt Q5IXF8); assay: cAMP accumulation assay, functional agonism of mouse GLP2 receptor; assay type: cell-based; conditions: HEK cells transiently transfected with mouse GLP2 receptor, HTRF cAMP; for Emax: HEK293, read-out: Mouse GLP-2R agonist cAMP Emax; for EC50: read-out: Mouse GLP-2R agonist cAMP pEC50 (converted)
T2 construct: expressed in transfected cells; host or cells: HEK cells, transient transfection with GeneJuice
T2 sequence (Q5IXF8 1-512): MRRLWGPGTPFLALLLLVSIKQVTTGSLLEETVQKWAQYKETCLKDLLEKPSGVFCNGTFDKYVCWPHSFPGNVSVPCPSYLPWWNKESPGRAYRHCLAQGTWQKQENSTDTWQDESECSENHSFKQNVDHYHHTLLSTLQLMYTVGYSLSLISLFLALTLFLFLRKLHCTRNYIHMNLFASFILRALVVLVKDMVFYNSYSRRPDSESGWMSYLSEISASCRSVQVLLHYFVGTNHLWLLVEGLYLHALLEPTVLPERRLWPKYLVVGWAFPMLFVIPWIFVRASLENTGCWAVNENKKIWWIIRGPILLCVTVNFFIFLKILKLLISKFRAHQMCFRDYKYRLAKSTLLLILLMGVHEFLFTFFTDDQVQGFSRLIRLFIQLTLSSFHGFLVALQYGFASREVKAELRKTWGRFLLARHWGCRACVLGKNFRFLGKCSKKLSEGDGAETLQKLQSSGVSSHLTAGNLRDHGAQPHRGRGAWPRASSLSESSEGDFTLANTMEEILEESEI
Summary of the method: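 Transiently transfected HEK cells (24 h, frozen, 8000/well) in HBSS with 0.5 mM IBMX exposed to compound concentration series for 45 min at 37 °C. cAMP measured by HTRF after lysis and 1 h at RT; pEC50 from four-parameter concentration-response fit.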

[4] = biological target: T3, human GLP1 receptor (Homo sapiens, UniProt P43220); assay: cAMP accumulation assay, functional agonism of human GLP1 receptor; assay type: cell-based; conditions: HEK cells infected with human GLP1 receptor BacMam virus, HTRF cAMP; for Emax: HEK293, read-out: Human GLP-1R agonist cAMP Emax; for EC50: read-out: Human GLP-1R agonist cAMP pEC50 (converted)
T3 construct: expressed in transfected cells; host or cells: HEK cells, BacMam virus transduction
T3 sequence (P43220 24-463): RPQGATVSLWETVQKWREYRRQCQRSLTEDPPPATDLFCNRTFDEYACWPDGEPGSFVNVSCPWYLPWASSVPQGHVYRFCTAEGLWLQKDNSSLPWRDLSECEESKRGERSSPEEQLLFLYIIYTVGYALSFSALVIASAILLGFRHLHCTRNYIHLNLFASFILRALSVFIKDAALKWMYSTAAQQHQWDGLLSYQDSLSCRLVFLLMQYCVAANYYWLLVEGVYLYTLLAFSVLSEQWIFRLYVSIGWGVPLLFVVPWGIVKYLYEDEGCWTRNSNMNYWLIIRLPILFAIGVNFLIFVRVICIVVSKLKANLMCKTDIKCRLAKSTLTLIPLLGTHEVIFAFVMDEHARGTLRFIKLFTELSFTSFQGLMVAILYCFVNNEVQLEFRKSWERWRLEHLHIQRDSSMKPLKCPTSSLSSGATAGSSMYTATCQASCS
Summary of the method: as §1

[5] = Stability of peptides in Fasted-State Simulated Gastric Fluid (FaSSGF); assay type: in vitro ADME; conditions: FaSSGF with 0.1 mg/ml pepsin; t=30 mins, 37° C., pH 1.6, 0.1 mg/ml pepsin
Protocol: Stability of peptides was tested in Fasted-State Simulated gastric Fluid (FaSSGF) prepared according to manufacturer's protocol (Biorelevant, art. no. FFF01). […] FaSSGF was pre-incubated for 15 min at 37° C. and spiked with test and reference item working solutions. Experiments were conducted in duplicate in a non-serial manner. The total incubation volume per replicate was 150 μl. […] All samples and calibration standards (prepared in FaSSGF) were precipitated by addition of 300 μl precipitant (ACN / 2% acetic acid / 0.2% HFBA, (precipitation regent, PR)) containing internal standards (ISTD) to 150 μl sample. After incubation for 1 h at room temperature all samples were centrifuged for 10 min at 2,200×g (room temperature).

[6] = Stability of peptides in rat intestinal fluid (ratIF); conditions: Sprague Dawley, undiluted rat small intestinal fluid (ratIF)
Protocol: Peptides were tested for in vitro stability in native intestinal fluid obtained from the rat small intestine. Rat Sprague Dawley Small Intestinal Fluid (ratIF) (from Biotrend art. no. RSD-SIF-MI-30ML, undiluted) was preincubated for 15 min at 37° C. and spiked with test and reference item working solutions. Experiments were conducted in duplicate in a non-serial manner. The total incubation volume per replicate was 150 μl. […] All samples and calibration standards (prepared in ratIF) were precipitated by addition of 300 μl precipitant (ACN / 2% acetic acid / 0.2% HFBA, (precipitation regent, PR)) containing internal standards (ISTD) to 150 μl sample. After incubation for 1 h at room temperature all samples were centrifuged for 10 min at 2,200×g (room temperature).

SMILES	Emax [1]	EC50 [1]	remaining at 0.5 h [2]	Emax [3]	EC50 [3]	Emax [4]	EC50 [4]	remaining at 0.5 h [5]	remaining at 0.25 h [2]	remaining at 0.25 h [6]	remaining at 0.5 h [6]
CCCC[C@H](NC(=O)[C@H](CCC(=O)O)NC(=O)[C@@H]1CC(=O)NCCCC[C@H](NC(=O)[C@H](CC(=O)O)NC(=O)C(C)(C)NC(=O)[C@@H](N)Cc2c[nH]cn2)C(=O)N[C@@H](CO)C(=O)N[C@@H](Cc2ccccc2)C(=O)N[C@@H](CO)C(=O)N1)C(=O)N[C@H](Cc1ccccc1)C(=O)N[C@H](C(=O)N[C@@](C)(CC(C)C)C(=O)N[C@@H](CC(C)C)C(=O)N[C@@H](CC(=O)O)C(=O)N[C@H]1CCC(=O)NCCCC[C@@H](C(=O)N[C@@H](CC(=O)O)C(=O)N[C@@H](Cc2ccccc2)C(=O)N[C@H](C(=O)N[C@H]2CCC(=O)NCCCC[C@@H](C(=O)N[C@H]3CCC(=O)NCCCC[C@@H](C(N)=O)NC(=O)[C@H]([C@@H](C)O)NC(=O)[C@H]([C@@H](C)CC)NC(=O)[C@H](CCCCN)NC3=O)NC(=O)[C@H]([C@@H](C)CC)NC(=O)[C@H](CC(C)C)NC(=O)[C@H](Cc3c[nH]c4ccccc34)NC2=O)[C@@H](C)CC)NC(=O)[C@H](C)NC(=O)[C@H](C)NC(=O)[C@H](CCCCN)NC1=O)[C@@H](C)O [Example 46] (H-H[Aib]DKSFSDE[Nle][dF]T[αMeL]LDEKAAKDFIEWLIKEKITK-NH2; lactam 4-8, 16-20, 24-28, 29-33 (inferred); C-terminus assumed)	105%	0.0251 nM	95.3%	101%	10 nM	97.8%	0.126 nM	100%	–	–	–
CCCC[C@H](NC(=O)[C@H](CCC(=O)O)NC(=O)[C@H](CC(=O)O)NC(=O)[C@H](CO)NC(=O)[C@H](Cc1ccccc1)NC(=O)[C@H](CO)NC(=O)CNC(=O)[C@H](CC(=O)O)NC(=O)C(C)(C)NC(=O)[C@@H](N)Cc1c[nH]cn1)C(=O)N[C@H]1CC(=O)NCCCC[C@@H](C(=O)N[C@@H](CC(C)C)C(=O)N[C@@H](CCCCN)C(=O)N[C@@H](C)C(=O)N[C@@H](C)C(=O)N[C@@H](CCCCN)C(=O)N[C@@H](CC(=O)O)C(=O)N[C@@H](Cc2ccccc2)C(=O)N[C@H](C(=O)N[C@@H](CC(N)=O)C(=O)N[C@@H](Cc2c[nH]c3ccccc23)C(=O)N[C@@H](CC(C)C)C(=O)N[C@H](C(=O)N[C@@H](CCC(N)=O)C(=O)N[C@H]2CCCCNC(=O)CC[C@@H](C(N)=O)NC(=O)[C@H]([C@@H](C)O)NC(=O)[C@H]([C@@H](C)CC)NC(=O)[C@H](CCCCN)NC2=O)[C@@H](C)CC)[C@@H](C)CC)NC(=O)[C@H](CC(C)C)NC(=O)[C@H]([C@@H](C)CC)NC(=O)[C@H]([C@@H](C)O)NC1=O [Example 112] (H-H[Aib]DGSFSDE[Nle]DTILKLKAAKDFINWLIQKKITE-NH2; lactam 11-15, 29-33 (inferred); C-terminus assumed)	102%	0.158 nM	–	99.7%	6.31 nM	92.6%	10 nM	–	40.7%	24.5%	–
CCCC[C@H](NC(=O)[C@H](CCC(=O)O)NC(=O)[C@@H]1CC(=O)NCCCC[C@H](NC(=O)[C@H](Cc2nn[nH]n2)NC(=O)C(C)(C)C(=O)NCCc2c[nH]cn2)C(=O)N[C@@H](CO)C(=O)N[C@@H](Cc2ccccc2)C(=O)N[C@@H](CO)C(=O)N1)C(=O)N[C@H](Cc1ccccc1)C(=O)N[C@H](C(=O)N[C@@](C)(CC(C)C)C(=O)N[C@@H](CC(C)C)C(=O)N[C@@H](CC(=O)O)C(=O)N[C@H]1CCC(=O)NCCCC[C@@H](C(=O)N[C@@H](CC(=O)O)C(=O)N[C@@H](Cc2ccccc2)C(=O)N[C@H](C(=O)N[C@H]2CCC(=O)NCCCC[C@@H](C(=O)N[C@H]3CCC(=O)NCCCC[C@@H](C(N)=O)NC(=O)[C@H]([C@@H](C)O)NC(=O)[C@H]([C@@H](C)CC)NC(=O)[C@H](CCCCN)NC3=O)NC(=O)[C@H]([C@@H](C)CC)NC(=O)[C@H](CC(C)C)NC(=O)[C@H](Cc3c[nH]c4ccccc34)NC2=O)[C@@H](C)CC)NC(=O)[C@H](C)NC(=O)[C@H](C)NC(=O)[C@H](CCCCN)NC1=O)[C@@H](C)O [Example 45] ({Malonyl(2,2-Me2,histaminyl)}-[Ala(1H-tetrazol-5-yl)]KSFSDE[Nle][dF]T[αMeL]LDEKAAKDFIEWLIKEKITK-NH2; lactam 2-6, 14-18, 22-26, 27-31 (inferred); C-terminus assumed)	104%	0.0501 nM	95.3%	–	–	96.5%	0.2 nM	100%	–	–	62.4%
CC[C@H](C)[C@H](NC(=O)[C@H](Cc1ccccc1)NC(=O)[C@H](CC(=O)O)NC(=O)[C@H](CCCNC(=N)N)NC(=O)[C@H](C)NC(=O)[C@H](C)NC(=O)[C@H](CC(C)C)NC(=O)[C@H](CC(N)=O)NC(=O)[C@H](CC(=O)O)NC(=O)[C@H](CC(C)C)NC(=O)[C@@H](NC(=O)[C@@H](NC(=O)[C@H](CC(N)=O)NC(=O)[C@H](CCSC)NC(=O)[C@H](CCC(=O)O)NC(=O)[C@H](CC(=O)O)NC(=O)[C@H](CO)NC(=O)[C@H](Cc1ccccc1)NC(=O)[C@H](CO)NC(=O)CNC(=O)[C@H](CC(=O)O)NC(=O)CNC(=O)[C@@H](N)Cc1c[nH]cn1)[C@@H](C)O)[C@@H](C)CC)C(=O)N[C@@H](CC(N)=O)C(=O)N[C@@H](Cc1c[nH]c2ccccc12)C(=O)N[C@@H](CC(C)C)C(=O)N[C@H](C(=O)N[C@@H](CCC(N)=O)C(=O)N[C@H](C(=O)N[C@@H](CCCCN)C(=O)N[C@H](C(=O)N[C@H](C(=O)N[C@@H](CC(=O)O)C(=O)O)[C@@H](C)O)[C@@H](C)CC)[C@@H](C)O)[C@@H](C)CC [Teduglutide, reference compound]	–	–	1.7%	–	–	–	–	9.2%	1.2%	5.7%	1.3%
CCCC[C@H](NC(=O)[C@H](CCC(=O)O)NC(=O)[C@@H]1CC(=O)NCCCC[C@H](NC(=O)[C@H](CC(=O)O)NC(=O)C(C)(C)NC(=O)[C@@H](N)Cc2c[nH]cn2)C(=O)N[C@@H](CO)C(=O)N[C@@H](Cc2ccccc2)C(=O)N[C@@H](CO)C(=O)N1)C(=O)N[C@H](Cc1ccccc1)C(=O)N[C@H](C(=O)N[C@@](C)(CC(C)C)C(=O)N[C@@H](CC(C)C)C(=O)N[C@@H](CC(=O)O)C(=O)N[C@H]1CCC(=O)NCCCC[C@@H](C(=O)N[C@@H](CC(=O)O)C(=O)N[C@@H](Cc2ccccc2)C(=O)N[C@H](C(=O)N[C@H]2CCC(=O)NCCCC[C@@H](C(=O)N[C@H](C(=O)N[C@@H](CCCCN)C(=O)N3CCC[C@H]3C(N)=O)[C@@H](C)O)NC(=O)[C@H]([C@@H](C)CC)NC(=O)[C@H](CC(C)C)NC(=O)[C@H](Cc3c[nH]c4ccccc34)NC2=O)[C@@H](C)CC)NC(=O)[C@H](C)NC(=O)[C@H](C)NC(=O)[C@H](CCCCN)NC1=O)[C@@H](C)O [Example 30] (H-H[Aib]DKSFSDE[Nle][dF]T[αMeL]LDEKAAKDFIEWLIKTKP-NH2; lactam 4-8, 16-20, 24-28; N-terminus and C-terminus assumed)	104%	–	51.1%	101%	–	96.7%	–	100%	–	–	–
